Data from ChEMBL document CHEMBL1138993, “Thyroid receptor ligands. Part 5: novel bicyclic agonist ligands selective for the thyroid hormone receptor beta” (Bioorg Med Chem Lett, 2006).

Columns and labels:
[1] = biological target: T1, Thyroid hormone receptor alpha (Homo sapiens, UniProt P10827)
T1 sequence (P10827 whole entry): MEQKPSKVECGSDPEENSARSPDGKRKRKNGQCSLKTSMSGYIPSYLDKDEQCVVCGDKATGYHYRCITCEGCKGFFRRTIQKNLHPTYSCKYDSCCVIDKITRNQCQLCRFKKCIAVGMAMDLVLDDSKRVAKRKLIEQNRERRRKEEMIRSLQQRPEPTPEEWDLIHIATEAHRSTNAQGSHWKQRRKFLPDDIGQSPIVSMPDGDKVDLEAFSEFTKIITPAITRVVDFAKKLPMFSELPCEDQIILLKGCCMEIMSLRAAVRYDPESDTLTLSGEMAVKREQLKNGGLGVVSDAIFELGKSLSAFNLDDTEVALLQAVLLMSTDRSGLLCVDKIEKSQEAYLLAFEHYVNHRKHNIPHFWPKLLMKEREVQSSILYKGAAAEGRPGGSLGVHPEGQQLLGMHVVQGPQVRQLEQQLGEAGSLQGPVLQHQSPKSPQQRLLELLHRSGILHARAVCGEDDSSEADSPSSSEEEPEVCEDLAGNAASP
Description: Inhibition of human TR-alpha-1 by radioligand binding assay

[2] = biological target: T2, Thyroid hormone receptor beta (Homo sapiens, UniProt P10828)
T2 sequence (P10828 whole entry): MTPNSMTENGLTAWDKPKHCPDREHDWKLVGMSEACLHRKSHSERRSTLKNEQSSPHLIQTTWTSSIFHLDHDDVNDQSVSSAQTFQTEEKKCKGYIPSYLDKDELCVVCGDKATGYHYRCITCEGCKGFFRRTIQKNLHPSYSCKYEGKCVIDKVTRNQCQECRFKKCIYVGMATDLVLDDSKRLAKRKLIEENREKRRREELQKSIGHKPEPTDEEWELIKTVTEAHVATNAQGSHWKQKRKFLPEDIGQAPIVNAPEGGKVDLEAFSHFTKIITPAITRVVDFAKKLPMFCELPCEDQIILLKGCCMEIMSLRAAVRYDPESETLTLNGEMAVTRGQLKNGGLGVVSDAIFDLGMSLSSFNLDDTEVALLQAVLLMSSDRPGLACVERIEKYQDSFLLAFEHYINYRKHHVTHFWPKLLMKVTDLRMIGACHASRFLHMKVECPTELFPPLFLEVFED
Description: Inhibition of human TR-beta-1 by radioligand binding assay

[3] = biological target: T1, Thyroid hormone receptor alpha; remark: listed apart in the source
Description: Efficacy against TRAF-alpha-1 reporter cells

[4] = biological target: T2, Thyroid hormone receptor beta; remark: listed apart in the source
Description: Efficacy against TRAF-beta-1 reporter cells

Compound	IC50 [1] [nM]	IC50 [2] [nM]	EC50 [3] [nM]	EC50 [4] [nM]
CC(C)c1cc(Oc2c(Br)cc3nc(C(=O)O)cc(O)c3c2Br)ccc1O	250	51		
CC(C)c1cc(Oc2c(Cl)cc3[nH]c(C(=O)O)cc3c2Cl)ccc1O	1.4		10	
CC(C)c1cc(Oc2c(Br)cc3[nH]c(C(=O)O)cc3c2Br)ccc1O	2.5	0.28	10	4.2
CC(C)c1cc(Oc2c(Br)cc3c(c2Br)CC(C(=O)O)C3)ccc1O (stereo not given)	38	8.5	4.1	4.3
CC(C)c1cc(Oc2c(Cl)cc3[nH]c(C(=O)O)cc(=O)c3c2Cl)ccc1O	3500	870		
Cc1cc2nc(C(=O)O)ccc2c(C)c1Oc1ccc(O)c(C(C)C)c1	200	15	83	49
Cc1cc2[nH]c(C(=O)O)cc(=O)c2c(C)c1Oc1ccc(O)c(C(C)C)c1	620	240		
